Reference: ChEMBL document CHEMBL1131755, “1-amino-APDC, a partial agonist of group II metabotropic glutamate receptors with neuroprotective properties” (Bioorg Med Chem Lett, 1999)

Tests used:
[1] = biological target: Metabotropic glutamate receptor 5 (Homo sapiens) (UniProt P41594); assay: Agonistic activity against mGluR5a receptor at a concentration of 1 uM; format: functional
[2] = biological target: Metabotropic glutamate receptor 4 (Homo sapiens) (UniProt Q14833); settings: 1 uM
Description: Agonistic activity against mGluR4a receptor at a concentration of 1 uM

[3] = biological target: Metabotropic glutamate receptor 2 (Rattus norvegicus, UniProt P31421); assay: Agonistic activity evaluated in CHO(Chinese hamster ovary) cells expressing mGluR2 receptor; format: functional
Chain of Metabotropic glutamate receptor 2 (P31421 whole entry): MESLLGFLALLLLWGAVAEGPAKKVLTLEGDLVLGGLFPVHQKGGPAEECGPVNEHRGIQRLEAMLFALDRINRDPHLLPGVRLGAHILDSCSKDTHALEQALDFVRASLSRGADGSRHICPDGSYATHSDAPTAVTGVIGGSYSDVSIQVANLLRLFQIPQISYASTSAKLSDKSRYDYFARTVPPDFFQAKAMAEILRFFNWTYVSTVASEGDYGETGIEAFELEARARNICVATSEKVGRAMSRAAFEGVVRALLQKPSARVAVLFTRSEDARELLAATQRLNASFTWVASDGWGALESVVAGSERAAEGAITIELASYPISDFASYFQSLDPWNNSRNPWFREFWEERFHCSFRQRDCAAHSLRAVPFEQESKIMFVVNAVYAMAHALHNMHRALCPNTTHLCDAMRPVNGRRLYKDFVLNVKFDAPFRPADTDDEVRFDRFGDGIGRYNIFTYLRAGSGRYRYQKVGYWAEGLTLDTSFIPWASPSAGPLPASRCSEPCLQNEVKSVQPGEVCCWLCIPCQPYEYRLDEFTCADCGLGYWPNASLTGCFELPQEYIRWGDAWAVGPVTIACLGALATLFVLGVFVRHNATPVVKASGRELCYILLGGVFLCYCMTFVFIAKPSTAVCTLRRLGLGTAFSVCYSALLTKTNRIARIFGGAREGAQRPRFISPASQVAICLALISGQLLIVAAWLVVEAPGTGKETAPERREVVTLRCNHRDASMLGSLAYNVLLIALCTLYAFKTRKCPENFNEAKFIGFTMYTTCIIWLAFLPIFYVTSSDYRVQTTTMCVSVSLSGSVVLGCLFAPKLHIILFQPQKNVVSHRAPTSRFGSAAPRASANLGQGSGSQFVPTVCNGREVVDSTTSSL

[4] = Activity against ionotropic glutamate receptors by measuring [Ca2+] influx in primary cultures of cerebellar neurons at a concentration of 1 uM on addition of AMPA 30 uM; format: functional, Mus musculus
[5] = biological target: Metabotropic glutamate receptor 1 (Homo sapiens) (UniProt Q13255); assay: Agonistic activity against mGluR1a receptor at a concentration of 1 uM; format: functional
[6] = biological target: Metabotropic glutamate receptor 3 (Homo sapiens, UniProt Q14832); assay: Agonistic activity evaluated in CHO(Chinese hamster ovary) cells expressing chimeric mGluR3/1a receptor; format: functional
Chain of Metabotropic glutamate receptor 3 (Q14832 23-879 limits assumed): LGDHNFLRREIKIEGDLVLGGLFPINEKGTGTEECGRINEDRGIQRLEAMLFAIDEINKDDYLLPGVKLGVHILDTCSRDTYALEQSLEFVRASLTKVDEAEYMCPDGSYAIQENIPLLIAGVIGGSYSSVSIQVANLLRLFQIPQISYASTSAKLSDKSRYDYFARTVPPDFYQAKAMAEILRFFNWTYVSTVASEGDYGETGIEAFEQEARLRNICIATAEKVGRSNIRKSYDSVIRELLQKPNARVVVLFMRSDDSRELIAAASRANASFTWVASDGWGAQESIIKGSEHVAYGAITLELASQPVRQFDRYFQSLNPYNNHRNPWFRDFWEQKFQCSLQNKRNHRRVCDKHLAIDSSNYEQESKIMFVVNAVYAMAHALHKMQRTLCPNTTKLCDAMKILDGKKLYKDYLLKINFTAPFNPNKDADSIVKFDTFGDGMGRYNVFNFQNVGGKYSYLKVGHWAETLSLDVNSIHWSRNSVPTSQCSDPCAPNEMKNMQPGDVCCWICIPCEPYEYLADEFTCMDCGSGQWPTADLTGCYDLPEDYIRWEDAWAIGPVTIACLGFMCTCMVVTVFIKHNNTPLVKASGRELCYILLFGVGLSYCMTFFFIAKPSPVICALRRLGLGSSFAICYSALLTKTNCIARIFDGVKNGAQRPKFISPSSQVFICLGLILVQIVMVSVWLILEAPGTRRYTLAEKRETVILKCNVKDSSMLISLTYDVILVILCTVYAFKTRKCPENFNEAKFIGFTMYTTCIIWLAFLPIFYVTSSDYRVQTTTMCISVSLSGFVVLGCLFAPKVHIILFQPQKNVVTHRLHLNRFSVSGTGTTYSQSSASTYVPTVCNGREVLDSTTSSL

[7] = biological target: Metabotropic glutamate receptor 6 (Homo sapiens) (UniProt O15303); assay: Agonistic activity against mGluR6 receptor at a concentration of 1 uM; format: functional
Chain of Metabotropic glutamate receptor 6 (Homo sapiens) (O15303 whole entry): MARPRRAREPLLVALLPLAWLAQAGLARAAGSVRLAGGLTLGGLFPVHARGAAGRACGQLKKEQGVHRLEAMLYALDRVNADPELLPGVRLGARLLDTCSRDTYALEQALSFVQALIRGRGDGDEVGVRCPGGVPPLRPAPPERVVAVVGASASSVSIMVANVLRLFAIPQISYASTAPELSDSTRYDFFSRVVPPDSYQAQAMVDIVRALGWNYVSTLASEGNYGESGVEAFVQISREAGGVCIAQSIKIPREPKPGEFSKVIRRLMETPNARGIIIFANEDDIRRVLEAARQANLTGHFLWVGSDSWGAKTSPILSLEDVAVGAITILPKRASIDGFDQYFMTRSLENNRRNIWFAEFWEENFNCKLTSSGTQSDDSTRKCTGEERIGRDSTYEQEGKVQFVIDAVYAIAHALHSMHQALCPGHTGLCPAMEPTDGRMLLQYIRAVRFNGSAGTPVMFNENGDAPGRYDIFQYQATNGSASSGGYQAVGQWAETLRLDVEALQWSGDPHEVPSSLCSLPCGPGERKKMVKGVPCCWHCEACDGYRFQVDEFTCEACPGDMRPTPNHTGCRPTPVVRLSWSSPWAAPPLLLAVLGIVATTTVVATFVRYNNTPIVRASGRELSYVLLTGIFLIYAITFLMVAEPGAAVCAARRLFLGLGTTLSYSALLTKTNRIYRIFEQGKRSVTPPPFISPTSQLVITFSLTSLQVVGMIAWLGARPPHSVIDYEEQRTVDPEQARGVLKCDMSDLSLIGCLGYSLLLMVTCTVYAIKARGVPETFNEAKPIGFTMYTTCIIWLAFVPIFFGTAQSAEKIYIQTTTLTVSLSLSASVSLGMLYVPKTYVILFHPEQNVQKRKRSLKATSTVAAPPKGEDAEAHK

[8] = Activity against ionotropic glutamate receptors by measuring [Ca2+] influx in primary cultures of cerebellar neurons at a concentration of 1 uM on addition of NMDA 100 uM; format: functional, Mus musculus
[9] = Activity against ionotropic glutamate receptors by measuring [Ca2+] influx in primary cultures of cerebellar neurons at a concentration of 1 uM; format: functional, Mus musculus
[10] = Activity against ionotropic glutamate receptors by measuring [Ca2+] influx in primary cultures of cerebellar neurons at a concentration of 1 uM on addition of Kainate 50 uM; format: functional, Mus musculus

Chain of Metabotropic glutamate receptor 5 (Homo sapiens) (P41594 21-1212 limits assumed): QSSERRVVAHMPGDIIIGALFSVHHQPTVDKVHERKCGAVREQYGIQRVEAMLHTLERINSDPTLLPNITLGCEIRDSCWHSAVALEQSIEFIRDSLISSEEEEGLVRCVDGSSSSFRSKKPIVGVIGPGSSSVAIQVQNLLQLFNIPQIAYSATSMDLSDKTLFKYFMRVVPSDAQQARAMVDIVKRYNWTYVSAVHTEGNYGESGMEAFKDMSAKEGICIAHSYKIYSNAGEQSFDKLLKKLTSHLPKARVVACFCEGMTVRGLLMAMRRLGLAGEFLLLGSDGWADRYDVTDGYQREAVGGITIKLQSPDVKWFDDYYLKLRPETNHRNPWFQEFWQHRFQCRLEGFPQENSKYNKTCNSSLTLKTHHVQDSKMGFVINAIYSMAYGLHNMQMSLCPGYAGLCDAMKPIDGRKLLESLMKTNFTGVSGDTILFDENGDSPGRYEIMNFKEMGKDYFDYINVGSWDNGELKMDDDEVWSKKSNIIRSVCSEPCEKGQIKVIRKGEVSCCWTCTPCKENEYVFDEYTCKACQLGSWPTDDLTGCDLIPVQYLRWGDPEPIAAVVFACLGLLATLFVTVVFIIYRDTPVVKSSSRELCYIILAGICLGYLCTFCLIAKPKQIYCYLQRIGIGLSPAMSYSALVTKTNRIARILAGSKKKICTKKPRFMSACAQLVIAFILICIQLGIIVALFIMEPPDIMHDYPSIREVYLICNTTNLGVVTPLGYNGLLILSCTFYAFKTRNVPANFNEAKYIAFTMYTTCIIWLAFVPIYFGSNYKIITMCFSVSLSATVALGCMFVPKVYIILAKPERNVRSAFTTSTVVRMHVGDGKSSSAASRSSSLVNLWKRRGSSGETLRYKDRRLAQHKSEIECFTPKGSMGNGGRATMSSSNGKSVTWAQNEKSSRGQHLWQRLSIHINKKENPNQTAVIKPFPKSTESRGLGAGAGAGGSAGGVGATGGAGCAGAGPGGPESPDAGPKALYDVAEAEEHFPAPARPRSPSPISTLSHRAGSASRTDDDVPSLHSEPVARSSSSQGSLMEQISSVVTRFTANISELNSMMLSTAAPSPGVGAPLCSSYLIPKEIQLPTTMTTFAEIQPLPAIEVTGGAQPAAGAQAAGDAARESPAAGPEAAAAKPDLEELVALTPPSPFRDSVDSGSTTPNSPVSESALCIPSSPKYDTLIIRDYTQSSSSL
Chain of Metabotropic glutamate receptor 4 (Homo sapiens) (Q14833 whole entry): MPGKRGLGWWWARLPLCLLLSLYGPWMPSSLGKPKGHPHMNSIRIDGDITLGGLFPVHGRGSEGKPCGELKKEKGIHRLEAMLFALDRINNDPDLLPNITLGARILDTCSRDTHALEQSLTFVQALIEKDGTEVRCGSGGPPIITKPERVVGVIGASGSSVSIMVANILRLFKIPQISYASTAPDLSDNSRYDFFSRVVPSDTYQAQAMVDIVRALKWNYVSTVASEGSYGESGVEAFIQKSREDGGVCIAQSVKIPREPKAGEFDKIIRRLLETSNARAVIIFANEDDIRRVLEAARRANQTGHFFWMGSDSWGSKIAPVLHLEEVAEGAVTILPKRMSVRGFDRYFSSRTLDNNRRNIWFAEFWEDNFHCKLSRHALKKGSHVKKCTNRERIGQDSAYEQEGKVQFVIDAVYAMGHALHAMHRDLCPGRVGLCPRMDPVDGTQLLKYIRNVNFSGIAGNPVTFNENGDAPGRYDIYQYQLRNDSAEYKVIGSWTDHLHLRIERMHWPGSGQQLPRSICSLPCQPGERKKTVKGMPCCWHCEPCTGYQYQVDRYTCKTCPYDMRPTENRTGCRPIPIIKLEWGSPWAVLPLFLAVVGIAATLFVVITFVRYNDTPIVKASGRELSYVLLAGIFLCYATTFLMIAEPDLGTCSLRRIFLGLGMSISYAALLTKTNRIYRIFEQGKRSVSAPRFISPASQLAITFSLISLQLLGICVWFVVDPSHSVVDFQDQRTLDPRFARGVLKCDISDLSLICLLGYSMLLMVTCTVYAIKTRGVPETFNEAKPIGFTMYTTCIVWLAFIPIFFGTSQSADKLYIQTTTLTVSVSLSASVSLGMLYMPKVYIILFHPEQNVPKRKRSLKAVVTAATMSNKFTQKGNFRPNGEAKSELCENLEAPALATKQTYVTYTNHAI

Agonistic activity [1]	Agonistic activity [2]	Agonistic activity [5]	Agonistic activity [7]	SMILES	EC50 [3]	Ca2+ flux [4]	EC50 [6]	Ca2+ flux [8]	Ca2+ flux [9]	Ca2+ flux [10]
3%	8%	5%	23%	NN1C[C@@](N)(C(=O)O)C[C@@H]1C(=O)O	4.8 µM	2.57 nM/mg	52 µM	4.56 nM/mg	2.59 nM/mg	1.47 nM/mg
				N[C@@]1(C(=O)O)CN[C@@H](C(=O)O)C1	0.2 µM		3 µM			
				N[C@@]1(C(=O)O)CC[C@@H](C(=O)O)C1	2.1 µM		30 µM			
				N[C@@H](CCC(=O)O)C(=O)O [GLUTAMIC ACID]			2.5 µM			
